Measurements from paper PMC11100219, “Dual-function antimicrobial-antibiofilm peptide hybrid to tackle biofilm-forming Staphylococcus epidermidis” (Annals of Clinical Microbiology and Antimicrobials, 2024).
Residues, ends and D or L forms follow the SMILES beside them.

Test system: S. epidermidis biofilm formation genes (ica, agr)
Test: Transcriptional analysis, real-time RT-PCR
Assay type: cell-based, Staphylococcus epidermidis
Details: at MBIC50, 24 h
Procedure: The expression level of S. epidermidis biofilm formation gene was investigated using a real-time reverse transcription-polymerase chain reaction. In brief, total RNA of S. epidermidis biofilm, both untreated and treated with BiF2_5K7K (at MBIC50 for 24 h), was extracted by a RNeasy PowerBiofilm Kit (Qiagen, USA) and immediately reverse transcribed to cDNA by iScript reserve transcription supermix (Biolabs, UK). RNAprotect Bacteria Reagent (Qiagen, USA) was used to preserve RNA during isolation. Remaining DNA was removed by treatment with DnaseI (Biolabs, UK). Real-time RT-PCR was done in duplicate using iTaq Universal SYBR Green Supermix (Bio-Rad, USA) with 5 ng of cDNA and […] of forward and reverse primers (Table S1) using a CFX96 Real-Time PCR Detection System (Bio-Rad, USA). The cycling condition was started with an initial denaturation at 95°C for 2 min, followed by 50 amplification cycles consisting of 95°C for 30 s, 56°C for 1 min, and 72°C for 1 min. Subsequently, a melting curve was generated from 65°C to 95°C at intervals of 1 s at the end of each run. To analyse the relative quantitation of gene expression, 2^− ΔΔCt method was used, and 16S ribosomal subunit (rRNA) was served as the reference or housekeeping gene.

## CC[C@H](C)[C@H](NC(=O)[C@H](CCCCN)NC(=O)[C@H](CCCCN)NC(=O)[C@@H](NC(=O)[C@H](CC(C)C)NC(=O)[C@@H](N)Cc1ccccc1)C(C)C)C(=O)N[C@@H](CCCCN)C(=O)N[C@@H](CCCCN)C(=O)N[C@H](C(=O)N[C@@H](CC(C)C)C(=O)N[C@@H](CCCNC(=N)N)C(=O)N[C@@H](CCCNC(=N)N)C(N)=O)[C@@H](C)CC [BiF2_5K7K] (H-FLVKKIKKILRR-NH2; N-terminus assumed)
  agrC and agrA gene expression: neither agrC nor agrA gene expression changed at all
  expression of quorum-sensing genes agrD and agrB vs untreated control: reduced
  levels of icaC or icaR genes: no alteration
2^-ΔΔCt, 16S rRNA reference, significantly upregulated
  relative expression level of icaA, icaD and icaB genes: greater than 1
